Each block holds one compound with its values, some of them ahead of it.
Legend:
Ob/Ob Mice = experiment: Non-fasted glucose levels in ob/ob mice; type: in vivo; details: homozygous obese mice, compound in diet for 14 days
Source text: They are also hypometabolic and hypothermic. The obesity is characterized by an increase in both the number and the size of adipocytes. Although hyperphagia contributes to the obesity, homozygotes gain excess weight and deposit excess fat even when restricted to a diet sufficient for normal weight maintenance in lean mice. Mice heterozygous for the Lep^ob mutation appear like wild-type and are lean.
Forty-eight (48) B6.V-Lep^ob/J mice (00632, The Jackson Laboratory, JAX^6 mice), homozygous for the Lep^ob mutation and thirty six (36) controls B6.V-Lep^ob/J-lean, heterozygous for the Lep^ob mutation were used to study the effect of SIG1012 on non-fasted glucose levels. The mice were ear notched for identification and housed in individually and positively ventilated polycarbonate cages with HEPA filtered air at a density of 3 mice per cage. Bed-o-cob corn cob bedding was used and cages were changed every two weeks. The animal room was lighted entirely with artificial fluorescent lighting, with a controlled 12 h light/dark cycle (7 am to 7 pm light). The normal temperature and relative humidity ranges in the animal rooms were 22±4° C. and 50±15%, respectively. The animal rooms were set to have 15 air exchanges per hour. Filtered tap water, acidified to a pH of 2.8 to 3.2, and LabDiet AIN-76A was provided ad libitum.
Following acclimation, mice were assigned to groups A through G according to their body weight and genotype:
A Lean heterozygotes—B6.V-Lep^ob/J-lean Mice Fed Control Diet (AIN-76A);
B Lean heterozygotes—B6.V-Lep^ob/J-lean Mice Fed “Low” Compound I-63 (AIN-76A with 0.001% Compound I-63);
C Lean heterozygotes—B6.V-Lep^ob/J-lean Mice Fed “Medium” Compound I-63 (AIN-76A with 0.1% Compound I-63);
D Obese homozygotes—B6. V-Lep^ob/J Mice Fed Control Diet (AIN-76A);
E Obese homozygotes—B6N-Lep^ob/J Mice Fed “Low” Compound I-63 (AIN-76A with 0.001% Compound I-63); […]
Mice from Groups A through G were maintained on the respective diet for 14 days and blood glucose levels were measured weekly.

[1] = test system: serine 129 phosphorylated alpha-synuclein; experiment: Dephosphorylation assay of human alpha-synuclein by PP2A and PP1; type: biochemical; details: Western blot
Protocol: Dephosphorylation Assay of Human a Synuclein by PP2A and PP1. […] PP2A or PP1 (serial dilutions of 200 nM, 100 nM, 50 nM, 25 nM, 12 nM, and O nM as a negative control) were incubated with serine 129 phosphorylated alpha-synuclein in MOPS buffer. The reactions were stopped by adding 5×SDS sample buffer. Levels of phosphorylated-alpha-synuclein were assessed by western blotting using an anti-phospho-Ser 129 antibody. […] Specifically, at 200 nM concentration, PP2A dephosphorylates more than 95% of the serine 129 phosphorylated alpha-synuclein.

[2] = test system: alpha-synuclein phosphorylated at Ser129; experiment: Effect of PP2A methylation on alpha-synuclein dephosphorylation; type: biochemical, human
Protocol: Concentrated samples of the methylated and unmethylated AC dimer of PP2A were each serially diluted to final concentrations of 200 nM, 100 nM, 50 nM, 25 nM, and 12 nM. A buffer sample (with 0 nM PP2A) was used as the negative control. The dephosphorylation assay and western blotting were performed as described above in Example 31 Western blots were scanned on a Storm Scanner (Molecular Dynamics) and band intensities quantified with Image Quant software. The relative phosphorylation levels were calculated with the following formula: Relative phosphorylation level (%)=Signal of Sample/Signal of Negative Control*100%. Regression curves of relative phosphorylation levels as a function of PP2A concentration were plotted, and the EC50 values for methylated and unmethylated PP2A were estimated using the SigmaPlot program. The EC50 is a measure of phosphatase activity or dephosphorylation activity of PP2A toward phosphorylated alpha-synuclein. Specifically, it is the concentration of the AC dimer required to achieve 50% dephosphorylation of phosphorylated alpha-synuclein. […] Specifically, methylation reduces the EC50 value of PP2A AC dimer from ˜60 nM to ˜20 nM.

PP2A [3] = target: T1, PP2A (Homo sapiens, UniProt P67775); experiment: Phosphatase activity of PP2A using pNPP as substrate; type: biochemical; details: un-methylated PP2A, non-protein substrate pNPP, absence of ME and MT
T1 construct: made in house
Protocol: PP2A (10-200 nM) and pNPP (5-10 mM, Sigma) were mixed into 96-well plate (Fisher Scientific Inc.) in 50 μL of the buffer required. Reactions were performed at room temperature, and fully stopped by adding equal volume of 0.1 M EDTA. Production of p-nitrophenol […] was quantified by absorbance of reaction mixtures at 405 nm using the VMax® microplate reader (Molecular Devices).

PP2A [4] = target: T1, PP2A; experiment: Phosphatase activity of PP2A using phosphorylase a as substrate; type: biochemical; details: un-methylated PP2A, protein substrate phosphorylase a, absence of ME and MT
Protocol: After the reaction, proteins were precipitated by 50% (NH4)2SO4 (final concentration) twice, and collected by centrifugation. The pellet was re-dissolved and dialyzed in a buffer containing 50 mM Tris-HCl (pH6.9) and ImM DTT for 2×2 L at 4° C. overnight. Phosphorylase a (phospho-phosphorylase b) crystallized during the dialysis. The dialysate was centrifuged 14,000 r.p.m at 4° C. for 30 minutes, the supernatant was removed and purified ^32P-labelled phosphorylase a was re-dissolved in +50% glycerol, and stored at −20° C.
To measure PP2A's phosphatase activity, PP2A (5-20 nM) was incubated with phosphorylase a (5-10 μM) at 37° C. 10% TCA (final concentration) and was added to the reaction to precipitate proteins. Supernatant that contains free ^32P-phosphate group was added into scintillation counting solution (Ecoscint, National Diagnostics), and counted by scintillation counter (LS 6000SE, Beckman).

[5] = target: T2, protein phosphatase specific protein methylesterase (MEase) (Homo sapiens, UniProt Q9Y570); experiment: PP2A demethylation with [3H]-SAM and purified proteins (methylesterase activity); type: biochemical; details: purified methylated PP2A and MEase; read-out: ME (IC50)
T2 construct: made in house
T2 sequence (Q9Y570 1-386): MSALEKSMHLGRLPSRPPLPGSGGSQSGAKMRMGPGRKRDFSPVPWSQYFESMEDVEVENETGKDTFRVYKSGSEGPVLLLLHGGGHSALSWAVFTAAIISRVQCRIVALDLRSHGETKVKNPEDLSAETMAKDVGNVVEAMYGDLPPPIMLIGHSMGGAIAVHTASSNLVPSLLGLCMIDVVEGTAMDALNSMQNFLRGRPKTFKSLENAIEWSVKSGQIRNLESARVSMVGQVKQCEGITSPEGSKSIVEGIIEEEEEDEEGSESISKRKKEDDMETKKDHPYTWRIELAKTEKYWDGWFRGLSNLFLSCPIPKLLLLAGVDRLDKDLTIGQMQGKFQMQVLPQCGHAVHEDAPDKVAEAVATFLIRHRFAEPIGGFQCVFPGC
Protocol: PP2A (methylated and unmethylated) were eluted with 1.6 mL of Buffer A containing 350 mM NaCl. Fractions (0.2 mL each) were collected and the radioactivity in each fraction was measured using the scintillation counter (LS 6000SE, Beckman). Fractions with highest radioactivity were containing purified methylated PP2A were pooled with a total volume of 0.6 mL-0.8 mL. Purified methylated PP2A (50 nM-100 nM) was incubated with MEase (5 nM-20 nM) in 20 μl-50 μl reaction at room temperature for 30 minutes. The reaction was terminated by adding TCA (2 μl-6 μl) to a final concentration of 10%. Released [^3H]-methanol in supernatants was counted with scintillation counter (LS 6000SE, Beckman).

[6] = target: T3, protein phosphatase 2A specific methyltransferase (MTase) (Homo sapiens, UniProt Q9UIC8); experiment: PP2A methylation in 96-well plate format (methyltransferase activity); type: biochemical; details: purified PP2A, MTase and [3H]-SAM; read-out: MT (IC50)
T3 construct: His; made in house
Protocol: Purified PP2A, MTase and [^3H]-SAM, were incubated in reaction buffer at 37° C. At the end of the reaction, mixture was added onto the membranes of 96-well filter plate (Multiscreen™, Millipore). The membranes were then pre-wetted with 70% ethanol (50 μL/well) and then subsequently washed with water (2×200 μL/well). The reaction in each well was terminated and the proteins (5 μL-20 μL) were precipitated by adding 25% ice-cold TCA. The plate was kept on ice for 30 minutes to ensure completion of protein precipitation. Excess of the free SAM was then removed by washing with 5% cold TCA ([…]) and 70% cold ethanol (2×100 μL/well). Membranes were air-dried, radioactivity in each well was counted by TopCount^NXT scintillation counter (Packard) with 25 μL/well of Microsinct™ 20 (PerkinElmer).

phosphorylated Tau = experiment: Phosphorylated tau in vivo at four weeks (pS396 Western blot of brain); parameters: species or system mice; details: 0.1% in chow, phospho-Serine 396
Protocol: Swiss Webster mice (9-12 weeks old) were fed ad libitum, either standard rodent chow (Control), or rodent chow formulated with 0.1 g Compound I-63 per 100 g chow (0.1% Compound I-63) or 0.1 g Compound I-62 per 100 g chow (0.1% Compound I-62); water was changed weekly. Mice were housed at 23° C., on a 12 hour light and dark cycle, with 6 mice per cage. At 4 weeks, six mice from the Control, 0.1% Compound I-63 and 0.1% Compound I-62 groups were sacrificed by cervical dislocation, brains removed, snap-frozen in liquid nitrogen, and stored at −80° C. Brains were homogenized in 350 pi of buffer containing 20 mM MOPS-Na, pH 7.2, 1 mM EDTA/DTT, 0.5 mg/L of aprotinin, leupeptin and pepstatin, 100 nM okadaic acid, and clarified by centrifugation (14000 rpm, 10 min, 4° C.). Supernatant protein concentrations were measured by the Bradford method, 4 volumes of the supernatant and 1 volume of 5×SDS sample buffer were mixed and boiled for 2 minutes. Boiled homogenate ([…]) were loaded on 12% polyacrylamide gels, and transferred to nitrocellulose membranes. […] Protein bands were detected with the ECL Plus reagent (GE Healthcare) and blots scanned on a Molecular Dynamics Storm Imager. […]

T1 sequence (P67775 whole entry): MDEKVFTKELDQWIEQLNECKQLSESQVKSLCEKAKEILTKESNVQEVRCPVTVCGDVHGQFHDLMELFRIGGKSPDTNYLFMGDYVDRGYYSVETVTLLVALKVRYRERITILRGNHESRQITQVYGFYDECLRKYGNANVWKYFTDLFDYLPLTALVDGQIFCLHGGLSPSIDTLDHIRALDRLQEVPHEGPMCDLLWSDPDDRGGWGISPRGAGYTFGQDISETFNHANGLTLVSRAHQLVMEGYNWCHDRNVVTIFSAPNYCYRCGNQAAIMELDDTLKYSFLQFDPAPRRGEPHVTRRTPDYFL
T1 sequence (P30153 whole entry partner): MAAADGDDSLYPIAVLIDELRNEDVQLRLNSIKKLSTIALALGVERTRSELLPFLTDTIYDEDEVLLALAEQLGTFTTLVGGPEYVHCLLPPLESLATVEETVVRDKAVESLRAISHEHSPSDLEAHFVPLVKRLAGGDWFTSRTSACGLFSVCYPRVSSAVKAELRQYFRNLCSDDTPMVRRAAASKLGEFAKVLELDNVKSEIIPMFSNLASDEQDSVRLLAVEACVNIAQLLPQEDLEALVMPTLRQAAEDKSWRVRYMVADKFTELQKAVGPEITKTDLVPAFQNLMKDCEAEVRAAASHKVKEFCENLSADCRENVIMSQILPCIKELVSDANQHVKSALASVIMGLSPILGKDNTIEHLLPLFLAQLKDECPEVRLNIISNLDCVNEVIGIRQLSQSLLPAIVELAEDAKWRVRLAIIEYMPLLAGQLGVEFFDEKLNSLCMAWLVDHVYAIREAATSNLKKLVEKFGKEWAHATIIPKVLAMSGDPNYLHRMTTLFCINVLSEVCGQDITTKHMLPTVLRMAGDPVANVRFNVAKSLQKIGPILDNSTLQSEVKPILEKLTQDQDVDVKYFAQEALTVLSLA
T3 sequence (Q9UIC8 whole entry): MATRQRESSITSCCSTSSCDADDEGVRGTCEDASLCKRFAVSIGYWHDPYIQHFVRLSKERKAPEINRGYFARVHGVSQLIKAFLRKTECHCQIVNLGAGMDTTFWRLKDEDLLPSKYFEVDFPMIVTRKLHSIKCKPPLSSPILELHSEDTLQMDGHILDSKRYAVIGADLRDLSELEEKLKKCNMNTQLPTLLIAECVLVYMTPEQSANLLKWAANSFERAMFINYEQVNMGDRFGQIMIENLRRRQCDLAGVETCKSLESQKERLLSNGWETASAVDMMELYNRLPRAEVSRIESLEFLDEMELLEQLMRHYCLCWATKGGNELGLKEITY

Compound: CN(CCOc1ccc(CC2SC(=O)NC2=O)cc1)c1ccccn1 (stereo not shown) [Rosiglitizone, reference compound]
reduction in non-fasted blood glucose levels (Ob/Ob Mice): 66%

EC50 ([2]; methylated AC dimer): ~0.02 µM
EC50 ([2]; unmethylated AC dimer): ~0.06 µM
Compound: PP2A: Protein phosphatase 2A, AC dimer (unmethylated or methylated), used as the enzyme dephosphorylating alpha-synuclein
dephosphorylation of serine 129 phosphorylated alpha-synuclein ([1]; 200 nM phosphatase): more than 95%
dephosphorylation of phosphorylated alpha-synuclein (concentration dependence) ([1]; 12-200 nM phosphatase): concentration dependent manner

IC50 (PP2A [3]): 10 to 100 µM
IC50 (PP2A [4]): > 100 µM
IC50 [5]: 10 to 100 µM
IC50 [6]: 10 to 100 µM
Compound: CCCCCCCCCCCCCCCCCCCCCC(=O)NCCc1c[nH]c2ccc(O)cc12 [Compound I-62, N-(2-(5-hydroxy-1H-indol-3-yl)ethyl)docosanamide]
lowering of phosphorylated tau levels in the brain compared to control (phosphorylated Tau): 40%
